Key:
mouse DP receptor [1] = target: T1, mouse DP receptor (Mus musculus, UniProt P70263); assay: Receptor binding test using prostanoid DP receptor-expressing cells (3H-PGD2 binding inhibition); conditions: CHO cell membranes expressing mouse DP receptor; 3H-PGD2 2.5 nmol/L; Ki=IC50/(1+([L]*/Kd))
T1 construct: expressed in transfected cells; host or cells: CHO cells (membrane fraction)
T1 sequence (P70263 1-357): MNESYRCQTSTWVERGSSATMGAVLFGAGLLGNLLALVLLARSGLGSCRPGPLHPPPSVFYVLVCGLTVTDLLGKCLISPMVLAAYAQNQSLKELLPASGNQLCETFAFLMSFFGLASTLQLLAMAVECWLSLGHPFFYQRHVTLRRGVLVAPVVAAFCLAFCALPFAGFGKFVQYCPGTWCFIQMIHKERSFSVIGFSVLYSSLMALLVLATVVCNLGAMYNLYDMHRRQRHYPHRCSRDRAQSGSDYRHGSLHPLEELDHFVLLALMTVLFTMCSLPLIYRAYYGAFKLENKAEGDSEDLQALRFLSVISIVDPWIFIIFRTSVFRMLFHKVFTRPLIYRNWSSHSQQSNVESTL
Description: The compound of the present invention represented by formula (I) potently binds to a DP receptor and show an antagonistic activity. For example, in a laboratory test, such effects were confirmed by the following receptor binding test using prostanoid receptor-expressing cells. • (i) Receptor binding test using prostanoid DP receptor-expressing cells
CHO cells expressing a mouse DP receptor was prepared according to the method of Hirata et al. (Proc. Natl. Acad. Sci., 91, 11192–11196 (1994)) and used as a membrane standard.
A reaction solution (200 μL) containing the prepared membrane standard (30–166 μg) and ^3H-PGD2 was incubated at room temperature for 20 minutes. The reaction was stopped with an ice-cold buffer (1 mL) and the binding ^3H-PGD2 was trapped in on a glass filter by immediate aspiration-filtration under a reduced pressure, and its binding radioactivity was measured using a liquid scintillation counter.
A Kd value and a Bmax value were obtained from Scatchard plots (Ann. N.Y. Acad. Sci., 51, 660 (1949)). Non-specific binding was obtained as the binding radioactivity in the presence of unlabeled PGD2 at an excess amount (10 μmol/L). ^3H-PGD2 binding inhibition by the compound of the present invention was measured by adding ^3H-PGD2 (2.5 nmol/L) and the compound of the present invention as various concentrations. Also, the following buffers were used for the reactions. […]

mouse DP receptor [2] = target: T1, mouse DP receptor; assay: DP antagonistic activity assay using prostanoid DP receptor-expressing cells (cAMP production by PGD2); type: cell-based; conditions: CHO cells expressing mouse DP receptor; inhibition of cAMP production by PGD2 at 100 nM
Description: As shown in the above results, it is apparent that the compound of the present invention potently binds to a DP receptor. • (ii) DP antagonistic activity assay using prostanoid DP receptor-expressing cells
CHO cells expressing a mouse DP receptor were prepared according to the method of Nishigaki et al. (FEBS lett., 364, 339–341 (1995)), inoculated onto a 24-well microplate at 10^5 cells/well, followed by culturing for 2 days, and used for the assay. Each well was washed with 500 μL of MEM (minimum essential medium), and 450 μL of assay medium (MEM containing 1 mmol/L IBMX and 0.1 or 1% BSA), followed by incubation at 37° C. for 10 minutes. Then, an assay medium (50 μL) containing PGD2 alone or PGD2 with a test compound was added thereto to start the reaction, and after the reaction at 37° C. for 10 minutes, 500 μL of ice-cold trichloroacetatic acid (TCA) (10% w/v) was added thereto to stop the reaction. The reaction solution was frozen once (−80° C.) and thawed, and cells were peeled using a scraper, followed by centrifugation at 13,000 rpm for 3 minutes. The cAMP concentration was measured with a cAMP assay kit using the resulting supernatant. […] Trichloro acetic acid (TCA) was extracted to the chloroform layer and removed, the cAMP amount in a sample was determined using the aqueous layer as the sample according to the method described in the [^125I]cAMP assay kit. […]

Row | SMILES | Ki (mouse DP receptor [1]) [nM] | IC50 (mouse DP receptor [2]) [nM]
1 | Cc1cc2c(CC(=O)O)cccc2n1C(=O)c1ccc(OCCc2ccccc2)cc1 [1(3)] | 1.8 | 120
2 | CCCCCOc1ccc(C(=O)n2c(C)cc3c(CC(=O)O)cccc32)cc1 [1(4), 1-(4-Pentyloxybenzoyl)-2-methylindole-4-acetic acid] | 4.3 | 

Source: patent publication US7098234B2, “Indole derivatives, process for preparation of the same and use thereof” (Ono Pharmaceutical Co., Ltd., priority 2000, dated 2006)
